Laboratory results from US4069331A, “N-(p-fluorobenzoyl-n-propyl)-4-piperidylamides and salts thereof” (Boehringer Ingelheim GmbH, priority 1974, dated 1978).

Key:
adrenaline (epinephrine) = experiment: adrenaline-antagonistic activity (protection against a lethal dose of adrenaline); type: in vivo, Mouse (albino, NMRI); settings: mouse, oral, suspension in olive oil or gum arabic; 50% protection against lethal dose of adrenaline; read-out: Adrenaline-antagonism (ED50)
Experimental: (§1) Those compounds of the formula I wherein R is methyl, ethyl and isopropyl and the structurally most closely related compound disclosed in the prior art, namely 1-[4-(4-fluorophenyl)-4-oxobutyl]-4-benzamidopiperidine disclosed in British patent specification No. 1,345,872, were tested for adrenaline-antagonistic activity, inhibition of locomotion, inhibition of exploration and toxicity by standard pharmacological test methods, and in each case the median effective dose (ED50) or the median lethal dose (LD50), respectively, were calculated graphically from dose-activity graphs. Albino mice (NMRI) having a body weight of 20-25 gm were used as the test animals, 10 animals per dose and untreated controls. The test compounds were administered orally in suspension in olive oil or gum arabic.
1. The adrenaline-antagonistic activity was determined by the method of P.A.J. Janssen et al, Arzneimittelforschung (Drug Research) 13, 203 (1963). […] The ED50 is the dose which produces a 50% protection against a lethal dose of adrenaline (epinephrine).

[1] = inhibition of exploration (Planche-a-Trous situation); type: in vivo, Mouse (albino, NMRI); settings: mouse, oral, suspension in olive oil or gum arabic; 50% decrease of exploration
Experimental: as §1
2. The inhibiting effect on exploration was determined by the method of J.R. Borssin et al, Therapie 19, 571 (1964). The ED50 is the dose which produces a 50% decrease of exploration in the Planche-a-Trous situation.

[2] = inhibition of locomotion (open field test); type: in vivo, Mouse (albino, NMRI); settings: mouse, oral, suspension in olive oil or gum arabic; 50% attenuation of locomotion
Experimental: as §1
3. The inhibiting effect on locomotion was determined by the method of P.A.J. Janssen et al, Psychopharmacologia 1, 389 (1960). The ED50 is the dose which produces a 50% attenuation of locomotion in the open field test.

[3] = toxicity (24 hours observation); settings: in vivo, mouse, oral, suspension in olive oil or gum arabic
Experimental: as §1
4. The toxicity was determined over an observation period of 24 hours. The LD50 was calculated by the method J.T. Litchfield and F. Wilcoxon, J. Pharm. Exp. Ther. 96, 99 (1949).

O=C(CCCN1CCC(NC(=O)c2ccccc2)CC1)c1ccc(F)cc1 [C6 H5, 1-[4-(4-fluorophenyl)-4-oxobutyl]-4-benzamidopiperidine, reference compound]
ED50 (adrenaline (epinephrine)): 3.3 mg/kg | ED50 [1]: 45 mg/kg | ED50 [2]: 135 mg/kg | LD50 at 24 h [3]: 300 mg/kg

CC(C)C(=O)NC1CCN(CCCC(=O)c2ccc(F)cc2)CC1 [Example 4, N-[3'-(p-fluoro-benzoyl)-n-propyl]-4-(isobutyryl-amino) -piperidine]
ED50 (adrenaline (epinephrine)): 0.58 mg/kg | ED50 [1]: 9 mg/kg | ED50 [2]: 10 mg/kg | LD50 at 24 h [3]: 1850 mg/kg

CC(=O)NC1CCN(CCCC(=O)c2ccc(F)cc2)CC1 [Example 1]
ED50 (adrenaline (epinephrine)): 0.06 mg/kg | ED50 [1]: 8 mg/kg | ED50 [2]: 4 mg/kg | LD50 at 24 h [3]: 1050 mg/kg

CCC(=O)NC1CCN(CCCC(=O)c2ccc(F)cc2)CC1 [Example 2, N-[3'-(p-fluoro-benzoyl)-n-propyl]-4-(propionyl-amino) -piperidine]
ED50 (adrenaline (epinephrine)): 0.1 mg/kg | ED50 [1]: 4.4 mg/kg | ED50 [2]: 6 mg/kg | LD50 at 24 h [3]: 1160 mg/kg
